Test results: patent publication US20150250864A1, “ANTI-CANCER VACCINES” (Board of Regents, The University of Texas System, priority 2012, published 2015)

Columns and labels:
Assay type in all cases: cell-based, human
[1] = tested on: TIL obtained from melanoma patient; experiment: IFN-γ ELISPOT with TIL from melanoma patient
T cells in PBMCs [2] = experiment: IFN-γ release by ELISA from PBMC stimulated with peptides or protein; conditions: for IFN-γ release (OD values): stimulated PBMC, FIG. 21A
From the text: FIG. 17. T cell stimulation by HERV-K peptides. Peptides (p73-76 and p18-135) or HERV-K SU fusion proteins were used to stimulate PBMC and evaluated in vitro for their ability to stimulate T cells in PBMCs from healthy subjects (ND1007083; left) and/or cancer patients (BC 243; right), based on interferon-γ(IFN-γ) release by ELISA. KLH peptide and GST protein were used as controls. Other negative controls included media only, DMSO, and PBS.
FIG. 18. T cell stimulation by HERV-K peptides. Peptides (p73-76: left; and p18-135: middle) or HERV-K SU fusion proteins (right) were used to stimulate PBMC and evaluated in vitro for their ability to stimulate T cells in PBMCs from healthy subjects and/or cancer patients (BC 243; middle), based on interferon-γ (IFN-γ) release by ELISA. OD values of interferon-γ (IFN-γ) release were compared between normal donors (ND447549, ND1001366, and ND1007083) and cancer patients (OC222, OC 210, OC212, and BC243). OC is ovarian cancer and BC is breast cancer
FIGS. 21A-C. T Cell Stimulation. 9 mer Peptides (HERVK-3, HERVK-4, HERVK-11, and HERVK-18; see Table 1), p73-76 and p18-135 (Table 1 178 and 179), or HERV-K SU fusion proteins were used to stimulate PBMC and evaluated in vitro for their ability to stimulate T cells in PBMCs from healthy subjects and/or cancer patients, based on IFN-γ and Granzyme B release by ELISA. (FIG. 21A) OD values of IFN-γ release were compared in a normal donor (ND291812). (FIG. 21B) OD values of IFN-γ release were compared between a normal donor (ND291817) and an ovarian cancer patient (OC153). (FIG. 21C) OD values of Granzyme B release were compared between a normal donor (ND291817) and an ovarian cancer patient (OC153). Each dot represents an individual clone. Negative controls measured release of effector molecules from cancer cells after treatment with supernatants obtained from PBMCs without stimulation with HERV-K peptides or protein; positive controls were stimulated with PMA/ONO.
Cancer patients were enrolled to evaluate HERV-K as a tumor associated antigen target. Patients provided written informed consent as part of an approved protocol (LAB04-0083) at MD Anderson Cancer Center prior to commencing the studies. Normal healthy donor control blood samples were obtained from Gulf Coast Regional Blood Center, Houston Tex. 40 mL of peripheral blood was obtained from each patient, and peripheral blood mononuclear cells (PBMCs) were isolated by density gradient centrifugation using Histopaque-1077 (Sigma-Aldrich; USA). HLA-A*02 expression in PBMCs obtained from cancer patients and healthy subjects was determined by flow cytometry with PE Mouse anti-human HLA-A2 mAb BB7.2 (BD Pharmingen; San Diego, Calif., USA). Mouse IgG2b was used as an isotype control. PBMCs (5×10^5 cells/well) from either healthy subjects or cancer patients were incubated with Peptide #18-135 ([…]; SEQ ID NO: 178), Peptide #73-76 ([…]; SEQ ID NO: 179) or KLH as control peptide) or proteins (HERV-K env SU protein or GST protein as control) at concentrations of 40 μg/mL in 96-well U-bottom microplates (BD; Franklin Lakes, N.J., USA) in 100 μL of T-cell medium (TCM), consisting of RPMI 1640 (Mediatech; Manassas, Va., USA), 10% human AB serum (Valley Biomedical, Winchester, USA), […] 2-mercaptoethanol, 100 IU/mL interleukin-2 (IL-2), and 0.1 mM MEM nonessential amino acid solution (Invitrogen; Grand Island, N.Y., USA). Half of the TCM was removed and replaced with fresh TCM containing peptides (20 μg/mL) on day 7. After 14 days of culture, the supernatants from cell culture media (PBMC pulsed with peptides or proteins) were harvested and tested for their ability to produce IFN-gamma or IL-2, and granzyme B release was also determined by enzyme-linked immunosorbent assay (ELISA) assay. In order to detect the secreted cytokine in this assay, high-binding plates were coated with 5 μg/ml anti-IFN-γ (Mabtech, Stockholm, Sweden) diluted in PBS buffer at 4° C. overnight. […]

T cells in PBMCs [3] = experiment: Granzyme B release by ELISA from PBMC stimulated with peptides or protein; conditions: breast cancer patient (BC243) vs 3 normal donors
From the text: (§1) FIG. 19. T cell stimulation by HERV-K peptides. Peptides (p73-76 and p18-135) or HERV-K SU fusion proteins were used to stimulate PBMC and evaluated in vitro for their ability to stimulate T cells in PBMCs from healthy subjects and/or cancer patients, based on Granzyme B (Top panel) and interlukin-2 (IL-2; bottom panel) release by ELISA. OD values of Granzyme B or IL-2 release were compared between normal donors (ND427478, ND329966, and ND341277) and cancer patients (BC243 and OC212).
(§2) Cancer patients were enrolled to evaluate HERV-K as a tumor associated antigen target. Patients provided written informed consent as part of an approved protocol (LAB04-0083) at MD Anderson Cancer Center prior to commencing the studies. […] HLA-A*02 expression in PBMCs obtained from cancer patients and healthy subjects was determined by flow cytometry with PE Mouse anti-human HLA-A2 mAb BB7.2 (BD Pharmingen; San Diego, Calif., USA). […] After 14 days of culture, the supernatants from cell culture media (PBMC pulsed with peptides or proteins) were harvested and tested for their ability to produce IFN-gamma or IL-2, and granzyme B release was also determined by enzyme-linked immunosorbent assay (ELISA) assay. […] Absorbance was measured after 10 min of incubation in the dark and the plate was read on a Wallac Victor 2 V Microplate Reader (PerkinElmer, Waltham, Mass.). […]

T cells in PBMCs [4] = experiment: IL-2 release by ELISA from PBMC stimulated with peptides or protein; conditions: normal donors vs cancer patients
From the text: as §1, §2

IVS cells = experiment: IFN-γ ELISPOT with IVS cells (DC pulsed once with HERV-K protein) against MAPs, 9-mer pools or single peptides; conditions: donor 449731, IVS cells, FIG. 15C
From the text: FIGS. 15A-C. ELISPOT was employed to determine the production of IFN-γ in twelve 15-mer small pools. (FIG. 15A) Numbers of spots detected in multiple pools are shown for a breast cancer patient diagnosed with IDC (Acc 30) or a patient diagnosed with teratoma (Acc 32). (FIG. 15B) Numbers of spots detected in multiple pools are shown for a patient diagnosed with left breast minute foci of sugg papillary lesion (967092) or IDC (Acc 31). SP 1-12 represents small peptide pools #1-12. Pool 0 contains no peptides (as control). (FIG. 15C) T cells obtained from PBMC stimulated once with HERV-K-specific pulsed homologous B cells were reactive with individual MAPs, pools of 9-mer peptides, or single 9-mer peptides. NP: no peptide control.
IVS were obtained from two donor pairs stimulated with DC pulsed once with HERV-K protein. After 7 days (1-week stimulation), IVS cells were used for ELISPOT with 15-mer peptides (FIGS. 15A-B) or MAPs including MAP73, MAP75-76, MAP82-93, MAP 92-93, and MAP95-96 or 9 mer peptide pools (#1 to 5, #5 to 10, #1 to 10, #12 to 17, #18 to 22) or single peptides (#3, #18, and #4.11; FIG. 15C). Candidate epitopes (#4 and #11) were further identified using IVS generated from DC obtained from cancer patients stimulated with HERV-K antigen in this study.

| Sequence | recognition by TILs (IFN-γ ELISPOT) ([1]; TIL from a melanoma patient) | number of IFN-γ spots ([1]; TIL from melanoma patient specimens, FIG. 16A) | IFN-γ release (T cells in PBMCs [2]; peripheral T cells from most cancer patients (OC222, OC210, OC212, BC 243)) | IFN-γ release (OD values) (T cells in PBMCs [2]) | granzyme B release (T cells in PBMCs [3]) | IL-2 release (T cells in PBMCs [4]) | HERV-K specific T cell epitope (IFN-γ ELISPOT) (IVS cells) | IFN-γ release (T cells in PBMCs [2]; peripheral T cells from both healthy subjects (ND1007083) and cancer patients (BC 243)) |
| --- | --- | --- | --- | --- | --- | --- | --- | --- |
| SQTITCENCRLLSCI [15-mer 73] | the single peptide in SP7 which was recognized by TILs | large number of spots |  |  |  |  |  |  |
| SQTITCENCRLLSCIDSTFNWQHRILL [Peptide #73-76] |  |  | induce IFN-γ release | Higher IFN-γ release | to a greater extent than in 3 normal donors | in normal donors to a greater extent than in cancer patients |  |  |
| LILVCLFCL [HERVK-4] |  |  |  | Higher IFN-γ release |  |  | HERV-K specific T cell epitopes |  |
| ILVCLFCLL [HERVK-11] |  |  |  | Higher IFN-γ release |  |  | HERV-K specific T cell epitopes |  |
| IINLILILVCLFCLLLVCRCTQQLR [Peptide #18-135] |  |  |  | Higher IFN-γ release | to a greater extent than in 3 normal donors | in normal donors to a greater extent than in cancer patients |  | induce IFN-γ release |
